Measurements reported in the supplement of paper PMC10307832.

Experiments:
Assay in all cases: relative viability (nuclei count vs DMSO), 5 days (fraction); higher = more cells survive
Midostaurin + Crizotinib = compound: CO[C@@H]1[C@H](N(C)C(=O)c2ccccc2)C[C@H]2O[C@]1(C)n1c3ccccc3c3c4c(c5c6ccccc6n2c5c31)C(=O)NC4 [Midostaurin] + C[C@@H](Oc1cc(-c2cnn(C3CCNCC3)c2)cnc1N)c1c(Cl)ccc(F)c1Cl [Crizotinib] (partner 1 µM)
In short: (§1)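 For relative viability, nuclei counts in treated wells were divided by those in vehicle wells. Lung cancer cell lines had been pin-tool dosed in 1536-well plates the day after seeding and cultured for 5 days, then fixed and stained in one step (final 0.05% Triton X-100, 1% formaldehyde, 1 ug/ml Hoechst) and imaged at 4×. Doses were one drug alone or a fixed anchor-drug dose plus five library-drug doses (not always all listed) in √10 steps, and values are duplicate-plate medians.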

Midostaurin + Decitabine = compound: CO[C@@H]1[C@H](N(C)C(=O)c2ccccc2)C[C@H]2O[C@]1(C)n1c3ccccc3c3c4c(c5c6ccccc6n2c5c31)C(=O)NC4 [Midostaurin] + Nc1ncn([C@H]2C[C@H](O)[C@@H](CO)O2)c(=O)n1 [Decitabine] (partner 2 µM)
In short: as §1

[1] = compound: COc1cc(-c2nn([C@H]3CC[C@H](N4CCN(C(C)=O)CC4)CC3)c3ncnc(N)c23)ccc1NC(=O)c1cc2ccccc2n1C + CC(C)C[C@H](NC(=O)[C@H](Cc1ccccc1)NC(=O)c1cnccn1)B(O)O [Bortezomib] (partner 0.002 µM)
In short: as §1

[2] = compound: COc1cc(-c2nn([C@H]3CC[C@H](N4CCN(C(C)=O)CC4)CC3)c3ncnc(N)c23)ccc1NC(=O)c1cc2ccccc2n1C + Cc1cc(Nc2cc(N3CCN(C)CC3)nc(Sc3ccc(NC(=O)C4CC4)cc3)n2)n[nH]1 [Tozasertib] (partner 0.1 µM)
In short: as §1

[3] = compound: COc1cc(-c2nn([C@H]3CC[C@H](N4CCN(C(C)=O)CC4)CC3)c3ncnc(N)c23)ccc1NC(=O)c1cc2ccccc2n1C + O=C(CCCCCCC(=O)Nc1ccccc1)NO [Vorinostat] (partner 1 µM)
In short: as §1

Cell Line	relative viability (Midostaurin + Crizotinib; first compound 0.01 µM)	relative viability (Midostaurin + Crizotinib; first compound 0.03162 µM)	relative viability (Midostaurin + Crizotinib; first compound 0.1 µM)	relative viability (Midostaurin + Crizotinib; first compound 0.3162 µM)	relative viability (Midostaurin + Decitabine; first compound 0.01 µM)	relative viability (Midostaurin + Decitabine; first compound 0.03162 µM)	relative viability (Midostaurin + Decitabine; first compound 0.1 µM)	relative viability (Midostaurin + Decitabine; first compound 0.3162 µM)	relative viability ([1]; first compound 0.0128 µM)	relative viability ([1]; first compound 0.04048 µM)	relative viability ([1]; first compound 0.128 µM)	relative viability ([1]; first compound 1.28 µM)	relative viability ([2]; first compound 0.0128 µM)	relative viability ([2]; first compound 0.04048 µM)	relative viability ([2]; first compound 0.128 µM)	relative viability ([2]; first compound 1.28 µM)	relative viability ([3]; first compound 0.0128 µM)	relative viability ([3]; first compound 0.04048 µM)	relative viability ([3]; first compound 0.128 µM)	relative viability ([3]; first compound 1.28 µM)
NCI-H1437	0.935	0.87	0.878	1	0.579	0.607	0.561	0.53	0.587	0.522	0.365	0.585	0.393	0.437	0.387	0.277	0.967	1	0.856	0.864
COR-L23	0.653	0.633	0.541	0.464	0.381	0.441	0.448	0.434	0.991	1.4	0.873	0.908	0.246	0.217	0.147	0.133	0.528	0.615	0.42	0.558
ABC-1	0.981	1.28	1.12	0.582	1.02	1.14	0.942	1.26	0.212	0.32	0.26	0.3	0.151	0.205	0.176	0.154	1.21	0.965	1.19	1.14
NCI-H522	–	–	–	–	0.584	0.638	0.822	0.525	–	–	–	–	0.614	0.59	0.566	0.445	0.898	0.946	0.823	0.79
NCI-H838	0.877	0.634	0.812	0.524	0.478	0.447	0.385	0.328	1.18	0.817	0.578	0.628	0.287	0.289	0.322	0.209	0.783	0.763	0.742	0.685
SW 900	–	–	–	–	0.407	0.491	0.439	0.433	–	–	–	–	0.665	0.539	0.402	0.343	0.806	0.582	0.511	0.621
A549	0.796	0.665	0.589	0.26	0.255	0.221	0.216	0.222	–	–	–	–	–	–	–	–	–	–	–	–
NCI-H1792	0.947	1.02	0.967	1.02	0.555	0.515	0.529	0.431	1.03	0.883	0.948	0.67	–	–	–	–	–	–	–	–
NCI-H1703	0.73	0.569	0.684	0.221	–	–	–	–	0.286	0.45	0.298	0.235	–	–	–	–	–	–	–	–
Calu-6	0.685	0.768	0.859	0.617	–	–	–	–	1.04	1.05	0.869	0.754	–	–	–	–	–	–	–	–
NCI-H358	0.528	0.596	0.563	0.292	0.228	0.236	0.231	0.25	–	–	–	–	0.107	0.104	0.103	0.0932	0.706	0.672	0.523	0.646
NCI-H1944	1.07	1.08	1	1.1	0.463	0.439	0.375	0.394	–	–	–	–	0.265	0.257	0.24	0.196	0.654	0.641	0.578	0.416
NCI-H1648	–	–	–	–	0.499	–	–	0.446	–	–	–	–	0.381	0.514	0.469	0.3	0.536	0.48	0.526	0.341
EBC-1	0.164	0.231	0.197	0.2	–	–	–	–	0.575	0.554	0.521	0.481	–	–	–	–	–	–	–	–
NCI-H1299	0.929	0.914	0.941	0.86	–	–	–	–	1.02	1.14	1.06	1.22	–	–	–	–	–	–	–	–
NCI-H2228	0.662	0.434	0.361	0.509	–	–	–	–	0.945	1.08	0.804	0.559	0.273	0.242	0.22	0.157	0.869	0.609	0.568	0.527
NCI-H2342	–	–	–	–	0.73	0.787	0.716	0.827	–	–	–	–	0.595	0.523	0.491	0.303	0.762	0.758	0.861	0.825
IA-LM	0.751	0.712	0.606	0.448	–	–	–	–	0.847	1.07	0.896	0.631	–	–	–	–	1.07	0.877	0.79	0.912
SK-MES-1	0.966	0.929	0.931	0.94	0.42	0.41	0.333	0.381	–	–	–	–	0.906	1.01	0.827	0.936	1.17	1.14	1.08	1.13
NCI-H2170	1.18	1.24	1.15	1.29	0.5	0.495	0.441	0.456	–	–	–	–	0.805	0.738	0.688	0.639	1.09	0.969	0.8	0.704
NCI-H1793	–	–	–	–	0.484	0.551	0.493	0.359	–	–	–	–	0.367	0.343	0.228	0.126	0.981	0.658	0.794	0.528
CAL-12T	0.616	0.572	0.646	0.251	–	–	–	–	1.11	0.943	0.938	0.972	0.29	0.275	0.221	0.178	0.871	0.706	0.702	0.753
